Test results published in patent US10273222B2 (CELGENE QUANTICEL RESEARCH, INC., priority 2013, dated 2019).
Blank lines part the entries; values can stand above or below the compound they belong to.

Experiments:
Assay type in all cases: biochemical
[1] = target: JMJD2C (Homo sapiens (Human), UniProt Q9H3R0); assay: JMJD2C in vitro enzyme inhibition assay (TR-FRET)
[2] = target: Jarid1B (Homo sapiens (Human), UniProt Q9UGL1); assay: Jarid1B in vitro enzyme inhibition assay (TR-FRET)
[3] = target: FBXL10 (Homo sapiens (Human), UniProt Q8NHM5); assay: FBXL10 in vitro enzyme inhibition assay (AlphaScreen)
Chain of FBXL10 (Q8NHM5 1-650): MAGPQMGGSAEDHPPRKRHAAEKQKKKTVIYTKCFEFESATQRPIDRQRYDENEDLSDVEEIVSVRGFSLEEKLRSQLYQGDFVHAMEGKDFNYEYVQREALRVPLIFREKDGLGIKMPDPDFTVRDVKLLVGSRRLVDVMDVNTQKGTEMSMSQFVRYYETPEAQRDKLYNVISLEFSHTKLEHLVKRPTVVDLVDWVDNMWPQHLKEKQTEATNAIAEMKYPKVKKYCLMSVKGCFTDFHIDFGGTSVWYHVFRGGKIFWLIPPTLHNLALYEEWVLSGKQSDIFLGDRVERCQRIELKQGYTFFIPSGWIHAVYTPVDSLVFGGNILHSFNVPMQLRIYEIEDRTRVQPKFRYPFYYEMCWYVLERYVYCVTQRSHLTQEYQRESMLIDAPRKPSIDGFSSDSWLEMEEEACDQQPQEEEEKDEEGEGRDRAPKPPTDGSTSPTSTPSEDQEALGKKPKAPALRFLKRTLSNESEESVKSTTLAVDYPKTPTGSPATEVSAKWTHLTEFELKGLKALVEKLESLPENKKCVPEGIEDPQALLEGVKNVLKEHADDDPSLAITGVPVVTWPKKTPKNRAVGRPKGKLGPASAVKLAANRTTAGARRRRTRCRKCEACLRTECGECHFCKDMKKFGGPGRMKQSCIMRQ
Protocol: Reaction product was determined quantitatively by AlphaScreen detection after the addition of detection reagents anti-H3K36me1 antibody, AlphaScreen® Streptavidin-coated Donor beads, and AlphaScreen® Protein A Acceptor beads in 50 mM HEPES, pH7.3, 10 mM NaCl, 0.005% Brij35, 5 mM EDTA, 2 mg/ml BSA to final 10 μg/ml beads.
Plates were incubated at room temperature for 40 minutes, followed by addition of 3 μl of 50 μg/ml AlphaScreen® Streptavidin-coated Donor beads and AlphaScreen® Protein A Acceptor beads in 50 mM HEPES, pH7.3, 10 mM NaCl, 0.005% Brij35, 5 mM EDTA, 2 mg/ml BSA. Plates were read by EnVisionMultilabel Reader in AlphaScreen mode after a minimum of 2 hour or up to overnight incubation at room temperature. The AlphaScreen signal for each well was used to determine inhibition constant (IC50).

[4] = target: Jarid1A (Homo sapiens (Human), UniProt P29375); assay: Jarid1A in vitro enzyme inhibition assay (TR-FRET)
Chain of Jarid1A (P29375 1-1090): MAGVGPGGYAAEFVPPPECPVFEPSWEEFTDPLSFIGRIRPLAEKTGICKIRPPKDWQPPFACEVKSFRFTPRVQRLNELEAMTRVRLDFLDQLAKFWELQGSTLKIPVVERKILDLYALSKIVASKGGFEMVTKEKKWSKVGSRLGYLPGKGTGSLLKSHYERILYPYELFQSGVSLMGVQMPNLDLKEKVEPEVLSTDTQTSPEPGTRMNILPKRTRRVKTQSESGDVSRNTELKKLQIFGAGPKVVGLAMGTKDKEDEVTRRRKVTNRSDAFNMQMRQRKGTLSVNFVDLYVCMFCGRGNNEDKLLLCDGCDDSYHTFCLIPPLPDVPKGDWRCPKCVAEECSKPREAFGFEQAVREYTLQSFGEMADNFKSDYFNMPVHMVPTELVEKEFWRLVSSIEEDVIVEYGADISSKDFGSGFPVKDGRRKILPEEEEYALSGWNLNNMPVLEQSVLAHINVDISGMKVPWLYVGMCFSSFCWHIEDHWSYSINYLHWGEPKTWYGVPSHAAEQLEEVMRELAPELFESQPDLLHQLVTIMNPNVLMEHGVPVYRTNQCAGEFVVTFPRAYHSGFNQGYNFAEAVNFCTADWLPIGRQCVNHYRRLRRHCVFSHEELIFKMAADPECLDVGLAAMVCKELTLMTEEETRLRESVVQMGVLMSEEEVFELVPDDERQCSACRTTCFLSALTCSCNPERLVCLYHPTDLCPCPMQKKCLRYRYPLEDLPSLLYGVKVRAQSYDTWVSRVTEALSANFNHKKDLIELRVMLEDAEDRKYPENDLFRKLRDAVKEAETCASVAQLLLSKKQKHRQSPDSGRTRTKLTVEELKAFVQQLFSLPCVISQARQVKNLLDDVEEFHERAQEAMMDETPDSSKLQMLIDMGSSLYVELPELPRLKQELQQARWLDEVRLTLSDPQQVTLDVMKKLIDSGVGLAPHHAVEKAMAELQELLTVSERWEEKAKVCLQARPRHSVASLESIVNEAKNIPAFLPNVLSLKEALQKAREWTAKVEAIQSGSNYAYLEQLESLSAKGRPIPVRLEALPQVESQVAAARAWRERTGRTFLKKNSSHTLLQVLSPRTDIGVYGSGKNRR
Description: The enzymatic assay of Jarid1A activity is based upon Time Resolved-Fluorescence Resonance Energy Transfer (TR-FRET) detection.

Chain of JMJD2C (Q9H3R0 2-372): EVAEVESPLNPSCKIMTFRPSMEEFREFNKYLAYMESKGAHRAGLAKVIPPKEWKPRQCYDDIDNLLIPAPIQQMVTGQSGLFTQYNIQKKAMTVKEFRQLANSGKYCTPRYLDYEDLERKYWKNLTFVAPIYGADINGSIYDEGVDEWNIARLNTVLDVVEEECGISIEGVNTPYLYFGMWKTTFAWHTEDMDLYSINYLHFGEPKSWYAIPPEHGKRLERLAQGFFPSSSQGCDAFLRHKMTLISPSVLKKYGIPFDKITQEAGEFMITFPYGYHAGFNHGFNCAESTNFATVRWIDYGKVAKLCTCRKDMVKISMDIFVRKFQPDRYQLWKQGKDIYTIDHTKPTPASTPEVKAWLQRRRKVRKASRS
Chain of Jarid1B (Q9UGL1 2-751): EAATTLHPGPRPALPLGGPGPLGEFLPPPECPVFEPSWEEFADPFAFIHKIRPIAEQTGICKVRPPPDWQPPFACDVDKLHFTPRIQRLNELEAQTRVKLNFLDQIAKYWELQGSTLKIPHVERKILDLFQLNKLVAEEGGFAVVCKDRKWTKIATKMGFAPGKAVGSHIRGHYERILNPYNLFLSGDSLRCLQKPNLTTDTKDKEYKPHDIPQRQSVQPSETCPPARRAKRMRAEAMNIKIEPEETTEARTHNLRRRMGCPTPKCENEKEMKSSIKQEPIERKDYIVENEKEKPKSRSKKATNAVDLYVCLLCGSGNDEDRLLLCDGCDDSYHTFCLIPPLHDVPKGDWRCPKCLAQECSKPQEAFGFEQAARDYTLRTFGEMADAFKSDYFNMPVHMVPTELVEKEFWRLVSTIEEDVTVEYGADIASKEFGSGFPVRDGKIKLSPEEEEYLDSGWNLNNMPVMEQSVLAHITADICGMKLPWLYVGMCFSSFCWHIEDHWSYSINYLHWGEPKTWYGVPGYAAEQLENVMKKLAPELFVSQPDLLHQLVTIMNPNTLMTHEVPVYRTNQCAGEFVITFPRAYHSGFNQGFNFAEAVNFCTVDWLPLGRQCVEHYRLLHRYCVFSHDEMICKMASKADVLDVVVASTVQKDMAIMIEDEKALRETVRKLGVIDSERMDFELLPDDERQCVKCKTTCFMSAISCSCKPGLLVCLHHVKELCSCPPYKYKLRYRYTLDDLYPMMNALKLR

IC50 [1]: 1000 to 10000 nM | IC50 [2]: ≤ 100 nM | IC50 [3]: 100 to 1000 nM | IC50 [4]: ≤ 100 nM
Compound: Cc1ccc(-c2c(-c3cc(C(=O)O)ccn3)ncn2C)cc1 [Example 4, 2-[1-methyl-5-(4-methylphenyl)-1H-imidazol-4-yl]pyridine-4-carboxylic acid]

IC50 [1]: 1000 to 10000 nM | IC50 [2]: ≤ 100 nM | IC50 [3]: 100 to 1000 nM | IC50 [4]: ≤ 100 nM
Compound: CCc1ccc(-c2c(-c3cc(C(=O)O)ccn3)ncn2C)cc1 [Example 5, 2-[5-(4-ethylphenyl)-1-methyl-1H-imidazol-4-yl]pyridine-4-carboxylic acid]

IC50 [1]: 1000 to 10000 nM | IC50 [2]: 100 to 1000 nM | IC50 [4]: 100 to 1000 nM
Compound: CNC(=O)c1cccc(-c2c(-c3cc(C(=O)O)ccn3)ncn2C)c1 [Example 10, 2-{1-methyl-5-[3-(methylcarbamoyl)phenyl]-1H-imidazol-4-yl}pyridine-4-carboxylic acid]

IC50 [1]: 1000 to 10000 nM | IC50 [2]: 100 to 1000 nM | IC50 [3]: 100 to 1000 nM | IC50 [4]: 100 to 1000 nM
Compound: Cn1cnc(-c2cc(C(=O)O)ccn2)c1-c1cccc(CO)c1 [Example 11, 2-{5-[3-(hydroxymethyl)phenyl]-1-methyl-1H-imidazol-4-yl}pyridine-4-carboxylic acid]

IC50 [1]: 1000 to 10000 nM | IC50 [2]: 100 to 1000 nM | IC50 [3]: 100 to 1000 nM | IC50 [4]: 100 to 1000 nM
Compound: CCOc1ccc(-c2c(-c3cc(C(=O)O)ccn3)ncn2C)cc1 [Example 14, 2-[5-(4-ethoxyphenyl)-1-methyl-1H-imidazol-4-yl]pyridine-4-carboxylic acid]

IC50 [1]: 100 to 1000 nM | IC50 [2]: ≤ 100 nM | IC50 [4]: ≤ 100 nM
Compound: Cn1cnc(-c2cc(C(=O)O)ccn2)c1-c1ccc(C2(CO)CC2)cc1 [Example 17, 2-(5-{4-[1-(hydroxymethyl)cyclopropyl]phenyl}-1-methyl-1H-imidazol-4-yl)pyridine-4-carboxylic acid]

IC50 [1]: 100 to 1000 nM | IC50 [2]: ≤ 100 nM | IC50 [3]: ≤ 100 nM | IC50 [4]: ≤ 100 nM
Compound: C#Cc1ccc(-c2c(-c3cc(C(=O)O)ccn3)ncn2C)cc1 [Example 21, 2-[5-(4-ethynylphenyl)-1-methyl-1H-imidazol-4-yl]pyridine-4-carboxylic acid]

IC50 [1]: 100 to 1000 nM | IC50 [2]: ≤ 100 nM | IC50 [3]: ≤ 100 nM | IC50 [4]: ≤ 100 nM
Compound: Cn1cnc(-c2cc(C(=O)O)ccn2)c1-c1cccc(F)c1 [Example 24, 2-[5-(3-fluorophenyl)-1-methyl-1H-imidazol-4-yl]pyridine-4-carboxylic acid]

IC50 [1]: 100 to 1000 nM | IC50 [2]: ≤ 100 nM | IC50 [3]: 100 to 1000 nM | IC50 [4]: ≤ 100 nM
Compound: Cn1cnc(-c2cc(C(=O)O)ccn2)c1-c1ccc(Cl)c(Cl)c1 [Example 28, 2-[5-(3,4-dichlorophenyl)-1-methyl-1H-imidazol-4-yl]pyridine-4-carboxylic acid]

IC50 [1]: 100 to 1000 nM | IC50 [2]: ≤ 100 nM | IC50 [3]: ≤ 100 nM | IC50 [4]: ≤ 100 nM
Compound: COc1cc(-c2c(-c3cc(C(=O)O)ccn3)ncn2C)ccc1Cl [Example 30, 2-[5-(4-chloro-3-methoxyphenyl)-1-methyl-1H-imidazol-4-yl]pyridine-4-carboxylic acid]

Continued, compound first:

Compound: Cn1cnc(-c2cc(C(=O)O)ccn2)c1Br [Example 2, 2-(5-bromo-1-methyl-1H-imidazol-4-yl)pyridine-4-carboxylic acid]
IC50 [1]: 100 to 1000 nM | IC50 [2]: ≤ 100 nM | IC50 [3]: 100 to 1000 nM | IC50 [4]: ≤ 100 nM

Compound: Cn1cnc(-c2cc(C(=O)O)ccn2)c1-c1ccc(C(F)(F)F)cc1 [Example 6, 2-{1-methyl-5-[4-(trifluoromethyl)phenyl]-1H-imidazol-4-yl}pyridine-4-carboxylic acid]
IC50 [1]: 1000 to 10000 nM | IC50 [2]: ≤ 100 nM | IC50 [3]: 100 to 1000 nM | IC50 [4]: ≤ 100 nM

Compound: Cn1cnc(-c2cc(C(=O)O)ccn2)c1-c1ccc(C(C)(C)C)cc1 [Example 9, 2-[5-(4-tert-butylphenyl)-1-methyl-1H-imidazol-4-yl]pyridine-4-carboxylic acid]
IC50 [1]: 1000 to 10000 nM | IC50 [2]: 100 to 1000 nM | IC50 [4]: 100 to 1000 nM

Compound: Cn1cnc(-c2cc(C(=O)O)ccn2)c1-c1ccc(OC(F)(F)F)cc1 [Example 13, 2-{1-methyl-5-[4-(trifluoromethoxy)phenyl]-1H-imidazol-4-yl}pyridine-4-carboxylic acid]
IC50 [1]: 1000 to 10000 nM | IC50 [2]: 100 to 1000 nM | IC50 [3]: 100 to 1000 nM | IC50 [4]: 100 to 1000 nM

Compound: COCC1(c2ccc(-c3c(-c4cc(C(=O)O)ccn4)ncn3C)cc2)CC1 [Example 25, 2-(5-{4-[1-(methoxymethyl)cyclopropyl]phenyl}-1-methyl-1H-imidazol-4-yl)pyridine-4-carboxylic acid]
IC50 [1]: 1000 to 10000 nM | IC50 [2]: ≤ 100 nM | IC50 [4]: ≤ 100 nM

Compound: Cc1cc(Cl)ccc1-c1c(-c2cc(C(=O)O)ccn2)ncn1C [Example 26, 2-[5-(4-chloro-2-methylphenyl)-1-methyl-1H-imidazol-4-yl]pyridine-4-carboxylic acid]
IC50 [1]: 1000 to 10000 nM | IC50 [2]: 100 to 1000 nM | IC50 [4]: ≤ 100 nM

Compound: Cn1cnc(-c2cc(C(=O)O)ccn2)c1-c1ccc(Cl)cc1C(F)(F)F [Example 27, 2-{5-[4-chloro-2-(trifluoromethyl)phenyl]-1-methyl-1H-imidazol-4-yl}pyridine-4-carboxylic acid]
IC50 [1]: 1000 to 10000 nM | IC50 [2]: ≤ 100 nM | IC50 [3]: ≤ 100 nM | IC50 [4]: ≤ 100 nM

Compound: Cn1cnc(-c2cc(C(=O)O)ccn2)c1-c1ccc(Cl)c(C(F)(F)F)c1 [Example 31, 2-{5-[4-chloro-3-(trifluoromethyl)phenyl]-1-methyl-1H-imidazol-4-yl}pyridine-4-carboxylic acid]
IC50 [1]: 100 to 1000 nM | IC50 [2]: ≤ 100 nM | IC50 [3]: 100 to 1000 nM | IC50 [4]: ≤ 100 nM

Compound: Cn1cnc(-c2cc(C(=O)O)ccn2)c1-c1ccc(C2(C(F)(F)F)CC2)cc1 [Example 34, 2-(1-methyl-5-{4-[1-(trifluoromethyl)cyclopropyl]phenyl}-1H-imidazol-4-yl)pyridine-4-carboxylic acid]
IC50 [1]: 100 to 1000 nM | IC50 [2]: ≤ 100 nM | IC50 [4]: ≤ 100 nM

Compound: CN(C)CCCn1cnc(-c2cc(C(=O)O)ccn2)c1 [Example 42, 2-{1-[3-(dimethylamino)propyl]-1H-imidazol-4-yl}pyridine-4-carboxylic acid]
IC50 [1]: ≤ 100 nM | IC50 [2]: ≤ 100 nM | IC50 [4]: ≤ 100 nM

Compound: O=C(O)c1ccnc(-c2cn(CCN3CCOCC3)cn2)c1 [Example 45, 2-{1-[2-(morpholin-4-yl)ethyl]-1H-imidazol-4-yl}pyridine-4-carboxylic acid]
IC50 [1]: > 10000 nM | IC50 [2]: 100 to 1000 nM | IC50 [4]: 1000 to 10000 nM

Compound: CC(Cn1cnc(-c2cc(C(=O)O)ccn2)c1)N1CCCC1 (stereo not drawn) [Example 61, 2-{1-[2-(pyrrolidin-1-yl)propyl]-1H-imidazol-4-yl}pyridine-4-carboxylic acid]
IC50 [1]: ≤ 100 nM | IC50 [2]: ≤ 100 nM | IC50 [4]: ≤ 100 nM

Compound: O=C(O)c1ccnc(-c2cn(CCNCc3ccccc3C(F)(F)F)cn2)c1 [Example 75, 2-[1-[2-[[2-(trifluoromethyl)phenyl]methylamino]ethyl]imidazol-4-yl]pyridine-4-carboxylic acid]
IC50 [1]: ≤ 100 nM | IC50 [2]: ≤ 100 nM | IC50 [4]: ≤ 100 nM

Compound: COc1ccc(CCn2cnc(-c3cc(C(=O)O)ccn3)c2)cc1 [Example 94, 2-[1-[2-(4-methoxyphenyl)ethyl]imidazol-4-yl]pyridine-4-carboxylic acid]
IC50 [1]: ≤ 100 nM | IC50 [2]: ≤ 100 nM | IC50 [4]: ≤ 100 nM

Compound: Cn1cnc(-c2cc(-c3nn[nH]n3)ccn2)c1-c1ccc(F)c(O)c1 [Example 162, 2-fluoro-5-[3-methyl-5-[4-(2H-tetrazol-5-yl)pyridin-2-yl]imidazol-4-yl]phenol]
IC50 [1]: 1000 to 10000 nM | IC50 [3]: ≤ 100 nM

Compound: Cn1cnc(-c2cc(-c3nn[nH]n3)ccn2)c1-c1ccc(F)c(C(=O)Nc2ccccc2)c1 [Example 163, 2-fluoro-5-[3-methyl-5-[4-(2H-tetrazol-5-yl)pyridin-2-yl]imidazol-4-yl]-N-phenylbenzamide]
IC50 [1]: 1000 to 10000 nM | IC50 [3]: 100 to 1000 nM

Compound: Cn1cnc(-c2cc(-c3nn[nH]n3)ccn2)c1-c1ccc(F)c2ccccc12 [Example 164, 2-[5-(4-fluoronaphthalen-1-yl)-1-methylimidazol-4-yl]-4-(2H-tetrazol-5-yl)pyridine]
IC50 [1]: 1000 to 10000 nM | IC50 [3]: ≤ 100 nM

Compound: Cn1nnc(-c2ccnc(-c3cn(Cc4ccccc4Cl)cn3)c2)n1 [Example 165, 2-(1-(2-chlorobenzyl)-1H-imidazol-4-yl)-4-(2-methyl-2H-tetrazol-5-yl)pyridine]
IC50 [1]: 1000 to 10000 nM | IC50 [3]: 1000 to 10000 nM

Compound: CC(C)(C)C(=O)OCn1nnc(-c2ccnc(-c3cn(Cc4ccccc4Cl)cn3)c2)n1 [Example 166, (5-(2-(1-(2-chlorobenzyl)-1H-imidazol-4-yl)pyridin-4-yl)-2H-tetrazol-2-yl)methyl pivalate]
IC50 [1]: 1000 to 10000 nM | IC50 [3]: 1000 to 10000 nM

Compound: CC(=O)OCn1nnc(-c2ccnc(-c3cn(Cc4ccccc4Cl)cn3)c2)n1 [Example 167, (5-(2-(1-(2-chlorobenzyl)-1H-imidazol-4-yl)pyridin-4-yl)-2H-tetrazol-2-yl)methyl acetate]
IC50 [1]: 1000 to 10000 nM | IC50 [3]: 100 to 1000 nM

Compound: Fc1ccc(-c2c(-c3cc(-c4nn[nH]n4)ccn3)ncn2Cc2cccc(Cl)c2)c(OCC2CC2)c1 [Example 169, 2-(1-(3-chlorobenzyl)-5-(2-(cyclopropylmethoxy)-4-fluorophenyl)-1H-imidazol-4-yl)-4-(2H-tetrazol-5-yl)pyridine]
IC50 [1]: 1000 to 10000 nM | IC50 [3]: 100 to 1000 nM
